Toxic doses and inconclusive results are not listed. How the source made its calls: active means survival T/C of 150% or more; inactive means T/C below 125% in these data. Square brackets hold non-standard residues; d marks the D form. Peptide text beside a SMILES is read from it. ξ: configuration not given here. ξNle = CCCCC(N)C(=O)O
Tested on: BDF1 mice, B16 melanoma ip, median survival T/C
Experiment: NCI In Vivo Anticancer Drug Screen. Data for tumor model B16 Melanoma (intraperitoneal) in B6D2F1 (BDF1) mice
Conditions: endpoint: median survival time, higher = longer survival
In short: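 Transplantable tumor model; survival or tumor size measured; reported as T/C, treated over vehicle control.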

[1] = dose: 12.5 mg/kg/injection, schedule: Q01DX009 (ip), vehicle: saline
[2] = dose: 100.0 mg/kg/injection, schedule: Q01DX009 (ip), vehicle: saline
[3] = dose: 200.0 mg/kg/injection, schedule: Q01DX009 (ip), vehicle: saline
[4] = dose: 400.0 mg/kg/injection, schedule: Q01DX009 (ip), vehicle: saline
[5] = dose: 50.0 mg/kg/injection, schedule: Q01DX009 (ip), vehicle: saline with Tween-80
[6] = dose: 100.0 mg/kg/injection, schedule: Q01DX009 (ip), vehicle: saline with Tween-80
[7] = dose: 200.0 mg/kg/injection, schedule: Q01DX009 (ip), vehicle: saline with Tween-80
[8] = dose: 0.5 mg/kg/injection, schedule: Q01DX009 (ip), vehicle: saline
[9] = dose: 1.0 mg/kg/injection, schedule: Q01DX009 (ip), vehicle: saline
[10] = dose: 2.0 mg/kg/injection, schedule: Q01DX009 (ip), vehicle: saline
[11] = dose: 100.0 mg/kg/injection, schedule: Q01DX009 (ip), vehicle: Klucel (hydroxypropylcellulose) (HPC)
[12] = dose: 200.0 mg/kg/injection, schedule: Q01DX009 (ip), vehicle: Klucel (hydroxypropylcellulose) (HPC)
[13] = dose: 25.0 mg/kg/injection, schedule: Q01DX009 (ip), vehicle: saline
[14] = dose: 50.0 mg/kg/injection, schedule: Q01DX009 (ip), vehicle: saline
[15] = dose: 100.0 mg/kg/injection, schedule: Q04DX003 (ip), vehicle: saline with Tween-80
[16] = dose: 25.0 mg/kg/injection, schedule: Q01DX009 (ip), vehicle: Klucel (hydroxypropylcellulose) (HPC)
[17] = dose: 50.0 mg/kg/injection, schedule: Q01DX009 (ip), vehicle: Klucel (hydroxypropylcellulose) (HPC)
[18] = dose: 400.0 mg/kg/injection, schedule: Q01DX009 (ip), vehicle: Klucel (hydroxypropylcellulose) (HPC)
[19] = dose: 25.0 mg/kg/injection, schedule: Q01DX009 (ip), vehicle: saline with Tween-80
[20] = dose: 12.5 mg/kg/injection, schedule: Q01DX009 (ip), vehicle: saline with Tween-80
[21] = dose: 6.25 mg/kg/injection, schedule: Q01DX009 (ip), vehicle: Klucel (hydroxypropylcellulose) (HPC)
[22] = dose: 12.5 mg/kg/injection, schedule: Q01DX009 (ip), vehicle: Klucel (hydroxypropylcellulose) (HPC)

Measured: T/C

COc1cc(O)c(Cc2ccccc2O)c(O)c1C(=O)CCc1ccccc1
inactive: dose: 1.25 mg/kg/injection, schedule: Q01DX009 (ip), vehicle: other 100 % of control | dose: 2.5 mg/kg/injection, schedule: Q01DX009 (ip), vehicle: other 100 % of control | dose: 5.0 mg/kg/injection, schedule: Q01DX009 (ip), vehicle: other 92 % of control | dose: 10.0 mg/kg/injection, schedule: Q01DX009 (ip), vehicle: other 100 % of control

CN(C)CCC(=O)c1ccccc1
inactive: dose: 6.25 mg/kg/injection, schedule: Q01DX009 (ip), vehicle: saline 105 % of control | [1] 105 % of control

CC(=O)CC(=O)Nc1ccc(C)c(C)c1
inactive: [2] 92 % of control | [3] 89 % of control | [4] 94 % of control

S=C(Cc1ccccc1)N1CCN(c2ccc(Cl)cc2)CC1
inactive: [5] 100 % of control | [6] 99 % of control | [7] 93 % of control

CO[C@H]1C[C@H](O[C@H]2CC[C@]3(C=O)[C@H]4CC[C@]5(C)[C@@H](C6=CC(=O)OC6)CC[C@]5(O)[C@@H]4CC[C@]3(O)C2)O[C@H](C)[C@H]1O[C@@H]1O[C@H](CO)[C@@H](O)[C@H](O)[C@H]1O
inactive: dose: 0.25 mg/kg/injection, schedule: Q01DX009 (ip), vehicle: saline 105 % of control | dose: 0.25 mg/kg/injection, schedule: Q04DX003 (ip), vehicle: saline 100 % of control | [8] 100 % of control | dose: 0.5 mg/kg/injection, schedule: Q04DX003 (ip), vehicle: saline 102 % of control | [9] 100 % of control | dose: 1.0 mg/kg/injection, schedule: Q04DX003 (ip), vehicle: saline 105 % of control | [10] 94 % of control

CC(=O)OCC12CCC(C)=CC1OC1C(=O)CC2(C)C12CO2 (stereo not drawn)
inactive: [8] 101 % of control | [9] 110 % of control | [10] 113 % of control | dose: 4.0 mg/kg/injection, schedule: Q01DX009 (ip), vehicle: saline 98 % of control

CCCCNC(=O)Nc1cc(C)ccc1C
inactive: [11] 100 % of control | [12] 100 % of control

[Br][Ga]([Br])[Br]
inactive: [1] 101 % of control | [13] 96 % of control | [14] 96 % of control

Cc1ccc(C)c(NC(=O)Nc2ccc(Cl)cc2)c1
inactive: dose: 50.0 mg/kg/injection, schedule: Q01DX009 (ip), vehicle: gum acacia 121 % of control | dose: 100.0 mg/kg/injection, schedule: Q01DX009 (ip), vehicle: gum acacia 92 % of control | dose: 200.0 mg/kg/injection, schedule: Q01DX009 (ip), vehicle: gum acacia 98 % of control

NC(=O)c1ccc(-c2c3ccccc3cc3c2ccc2ccccc23)cc1
inactive: [5] 101 % of control | [6] 96 % of control

C=CCNC(=O)/C=C/C(=O)NCC=C
inactive: dose: 25.0 mg/kg/injection, schedule: Q04DX003 (ip), vehicle: saline with Tween-80 123 % of control | [15] 121 % of control

COc1cc(O)c2c(c1)C(=O)c1cc3c(c(O)c1C2=O)C(O)C(OC)C(C)(O)C3=O (stereo not drawn)
inactive: [16] 95 % of control | [17] 88 % of control

Cc1cc(=O)[nH]c2c(C)cc(-c3cc(C)c4[nH]c(=O)cc(C)c4c3)cc12
inactive: [2] 102 % of control | [3] 108 % of control | [4] 105 % of control

CC1CCC[N-]C1.CC1CCC[N-]C1.CC1CCC[N-]C1.CC1CCC[N-]C1.[Cl][Rh][Cl] (stereo not drawn)
inactive: dose: 3.0 mg/kg/injection, schedule: Q01DX009 (ip), vehicle: Klucel (hydroxypropylcellulose) (HPC) 111 % of control | dose: 6.0 mg/kg/injection, schedule: Q01DX009 (ip), vehicle: Klucel (hydroxypropylcellulose) (HPC) 110 % of control | dose: 12.0 mg/kg/injection, schedule: Q01DX009 (ip), vehicle: Klucel (hydroxypropylcellulose) (HPC) 115 % of control

O=C1C=CC(=O)C2=C1C1c3ccccc3C2([N+](=O)[O-])c2ccccc21
inactive: [11] 97 % of control | [12] 97 % of control | [18] 100 % of control

Cc1ccc(NC(=O)Nc2cccc(C(F)(F)F)c2)cc1NC(=O)Nc1cccc(C(F)(F)F)c1
inactive: [19] 103 % of control | [5] 91 % of control | [6] 96 % of control

CSc1ccc(NC(=O)Nc2ccccc2)cc1
inactive: [11] 102 % of control | [12] 98 % of control | [18] 95 % of control

Nc1cccc(NC=O)c1
inactive: [20] 102 % of control | [19] 97 % of control | [5] 97 % of control

Nc1ncc(CNc2ccc(C(=O)NC(CCC(=O)O)C(=O)O)cc2)c(N)n1 (stereo not drawn)
inactive: dose: 3.12 mg/kg/injection, schedule: Q01DX009 (ip), vehicle: Klucel (hydroxypropylcellulose) (HPC) 107 % of control | [21] 103 % of control | [22] 111 % of control | [16] 114 % of control | [17] 108 % of control

COC(=O)CC(=O)C=P(c1ccccc1)(c1ccccc1)c1ccccc1
inactive: [20] 98 % of control | [19] 103 % of control | [5] 107 % of control | [6] 113 % of control

CS(=O)(=O)c1cc([N+](=O)[O-])cc([N+](=O)[O-])c1Cl
inactive: dose: 0.1 mg/kg/injection, schedule: Q01DX009 (ip), vehicle: saline 93 % of control | dose: 0.2 mg/kg/injection, schedule: Q01DX009 (ip), vehicle: saline 93 % of control | dose: 0.4 mg/kg/injection, schedule: Q01DX009 (ip), vehicle: saline 100 % of control | dose: 0.8 mg/kg/injection, schedule: Q01DX009 (ip), vehicle: saline 95 % of control | dose: 1.25 mg/kg/injection, schedule: Q01DX009 (ip), vehicle: saline with Tween-80 91 % of control | dose: 2.5 mg/kg/injection, schedule: Q01DX009 (ip), vehicle: saline with Tween-80 86 % of control

CCCCC(NC(=O)CNC(=O)CN)C(=O)O (stereo not drawn) (H-Gly-Gly-[ξNle]-OH)
inactive: [5] 97 % of control | [6] 103 % of control | [7] 92 % of control | dose: 400.0 mg/kg/injection, schedule: Q01DX009 (ip), vehicle: saline with Tween-80 93 % of control

O=C(Oc1ccc(OC(=O)c2ccccc2)c2c1C(=O)C(CBr)=C(CBr)C2=O)c1ccccc1
inactive: [21] 97 % of control | [22] 100 % of control | [16] 97 % of control | [17] 101 % of control

Nc1ccc(N2CCNCC2)cc1
inactive: [14] 108 % of control | [2] 97 % of control | [3] 100 % of control

CN(C)CCCC#N
inactive: [13] 100 % of control | [14] 100 % of control | [2] 100 % of control

CC1(c2ccccc2)C(C#N)C(=O)NC(=O)C1C#N (stereo not drawn)
inactive: [5] 89 % of control | [6] 89 % of control | [7] 89 % of control

O=C(O)/C=C/c1ccc(/C=C/C(=O)O)cc1
inactive: [15] 111 % of control | dose: 200.0 mg/kg/injection, schedule: Q04DX003 (ip), vehicle: saline with Tween-80 102 % of control | dose: 400.0 mg/kg/injection, schedule: Q04DX003 (ip), vehicle: saline with Tween-80 100 % of control

C[N+](C)(C)Cc1ccccc1
inactive: [21] 109 % of control | [22] 107 % of control | [16] 101 % of control
